Where two headings read alike, the source gives them in different places.
What was measured:
[1] = tested on: multidrug resistant Haemonchus contortus isolate UGA2004 L3 stage larvae; settings: for inhibition of larval motility compared with verapamil: with IVR, 10 or 20 uM RTI-79, 20 uM RTI-176, 10 uM verapamil
Method: Each well contained a 300 uL solution containing approximately 75 L3 stage larvae, IVR, and pgp inhibitor or control. IVR was provided in serially diluted concentrations of 50, 25, 12.5, 6.25, 3.125, 1.56, 0.78 or 0.39 uM, to permit evaluation of the dose response to IVR in the presence of the pgp inhibitors. Inhibition of larval motility was determined by failure of the incubated larvea to move when stimulated by light exposure after incubation.

[2] = tested on: UGA2004 H. contortus isolate eggs; assay: Larval development assay, sensitization to thiabendazole; parameters: species or system Haemonchus contortus
Method: TBZ was provided in a range of concentrations to permit evaluation of the dose response to TBZ in the presence of the pgp inhibitors. After incubation of the eggs for seven days, the number of stage 3 (“L3”) larvae that developed with each treatment was counted.

P-gp = settings: previously demonstrated; cited from earlier work
[3] = Time to maximal plasma concentration / tissue absorption after administration
Source text: In certain embodiments, the rifamycin, rifamycin derivative, rifampicin, rifampicin derivative, or pharmaceutically acceptable salt, hydrate, or prodrug thereof, or combination thereof, can be administered in a method that matches the pharmokinetics of the composition to that of the antiparasitic drug also administered to the recipient.

P. Falciparum [4] = assay: In vitro inhibition of P. falciparum variants, DAPI fluorescence imaging assay in erythrocyte cultures; format: cell-based
Source text: Sensitivity of the P. Falciparum variants to (i.e. inhibition of the parasites by) RTI-79chloroquine, or rifamycin was quantitated via assay as previously described. Duffy, S. and V. M. Avery, Development and optimization of a novel 384-well anti-malarial imaging assay validated for high-throughput screening. Am J Trop Med Hyg, 2012. 86(1): p. 84-92. Inhibition of P. Falciparum with various concentrations of the inhibitors was quantified by measuring DAPI fluorescence of parasite DNA in erythrocyte cultures.
Decreased DAPI staining quantified as relative light units (“RLU”), is observed with parasite inhibition in the assays.

P. Falciparum [5] = assay: Chloroquine sensitization in chloroquine-resistant P. Falciparum (survival of variants); format: cell-based
Source text: Quinine and quinine derivatives including chloroquine inhibit the Plasmodium parasites, including P. Falciparum, by accumulating in food vacuoles and causing accumulation of cytotoxic heme, thereby poisoning the parasite.

P. Falciparum [6] = settings: read-out: previously-reported IC50 of chloroquine, cited from earlier work
[7] = cited from earlier work

Molecule: 11-deoxy-11-amino-4-deoxy-3,4[2-spiro-[1-(isobutyloxycarbonyl)-piperidin-4-yl]]-(1H)-imidazo-(2,5-dihydro)rifamycin S [RTI-176]
- shift of IVR dose response curve ([1]; relative to the 1% DMSO control, FIG. 3A): shifted the IVR dose response curve to the left
- inhibition of larval motility compared with verapamil [1]: more potent inhibition of larval motility
- shift of TBZ dose response curve ([2]; relative to both verapamil and the 1% DMSO control, FIG. 3B): shifted the TBZ dose response curve to the left
- shift of the IC50 of TBZ ([2]; seven days incubation, relative to control and verapamil): 3.79 fold

Molecule: 4-deoxy-3,4[2-spiro-[1-(isobutyloxycarbonyl)-piperidin-4-yl]]-(1H)-imidazo-(2,5-dihydro)rifamycin S [RTI-79]
- inhibition of larval motility compared with verapamil [1]: more potent inhibition of larval motility
- drug efflux from cells (P-gp): prevent drug efflux from cells
- time to maximal plasma concentration [3]: ≤ 3 h
- inhibition of strains (DAPI staining, RLU) (P. Falciparum [4]; all strains, FIGS. 1A-1C): Dose-dependent inhibition of all strains
- IC50 (P. Falciparum [4]; all variants (3D7, Dd2, K1; chloroquine-sensitive and -resistant), read-out: observed IC50): ~625 nM

Molecule: CCN(CC)CCCC(C)Nc1ccnc2cc(Cl)ccc12 (centres unmarked) [chloroquine]
- parasite survival (P. Falciparum [5]; 3D7 variant, chloroquine at or greater than IC50): death of the parasite
- parasite survival (P. Falciparum [5]; chloroquine-resistant variants, chloroquine alone at or below the 3D7 IC50): survive
- IC50 (P. Falciparum [6]; chloroquine-resistant Dd2 variant): 100 nM
- IC50 (P. Falciparum [6]; chloroquine-resistant K1 variant): 255 nM
- IC50 (P. Falciparum [6]; chloroquine-sensitive 3D7 variant): ~10 nM

Molecule: CO[C@H]1/C=C/O[C@@]2(C)Oc3c(C)c(O)c4c(c3C2=O)C2=NC3(CCN(CC(C)C)CC3)NC2=C(NC(=O)/C(C)=C\C=C\[C@H](C)[C@H](O)[C@@H](C)[C@@H](O)[C@@H](C)[C@H](OC(C)=O)[C@@H]1C)C4=O [rifabutin]
- initial half-life of plasma elimination ([7]; biphasic elimination): approximately 4 hours
- mean (±SD) peak plasma concentration (Cmax) ([7]; in vivo, po, 300 mg): 375 (±267) ng/mL
- peak plasma concentration (Cmax), range ([7]; in vivo, po, 300 mg): 141 to 1033 ng/mL
